ChEMBL document CHEMBL3046848, “Synthesis and biological evaluation of novel series of thieno[2,3-d]pyrimidine derivatives as anticancer and antimicrobial agents” (2013)
≈ marks a conversion by molar mass, not a printed value.

Key:
Type in all cases: functional
MOLT-4 = test: Anticancer activity against Homo sapiens (human) MOLT4 cells after 48 hr by SRB assay; details: MOLT-4, 48 h
SF-268 = test: Anticancer activity against Homo sapiens (human) SF268 cells after 48 hr by SRB assay; details: SF-268, 48 h
K562 [1] = test: Anticancer activity against Homo sapiens (human) K562 cells after 48 hr by SRB assay; details: K562, 48 h
Escherichia coli = test: Antimicrobial activity against Escherichia coli ATCC8739 assessed as diameter of growth inhibition zone at 1 mg/ml after 24 hr by agar cup diffusion method; details: ATCC8739, 24 h, read-out: IZ
TK-10 = test: Anticancer activity against Homo sapiens (human) TK10 cells after 48 hr by SRB assay; details: TK-10, 48 h
KM12 = test: Growth inhibition of Homo sapiens (human) KM12 cells at 10 uM after 48 hr by SRB assay; details: KM12, 48 h, read-out: GI
OVCAR-3 = test: Anticancer activity against Homo sapiens (human) OVCAR3 cells after 48 hr by SRB assay; details: OVCAR-3, 48 h
NCI-H322M = test: Anticancer activity against Homo sapiens (human) NCI-H322M cells after 48 hr by SRB assay
HCC 2998 = test: Anticancer activity against Homo sapiens (human) HCC2998 cells after 48 hr by SRB assay; details: HCC 2998, 48 h
MDA-MB-435 = test: Growth inhibition of Homo sapiens (human) MDA-MB-435 cells at 10 uM after 48 hr by SRB assay; details: MDA-MB-435, 48 h, read-out: GI
IGROV-1 [2] = test: Growth inhibition of Homo sapiens (human) IGROV1 cells at 10 uM after 48 hr by SRB assay; details: IGROV-1, 48 h, read-out: GI
SK-MEL-28 [3] = test: Anticancer activity against Homo sapiens (human) SK-MEL-28 cells after 48 hr by SRB assay; details: SK-MEL-28, 48 h
HT-29 = test: Anticancer activity against Homo sapiens (human) HT-29 cells after 48 hr by SRB assay; details: HT-29, 48 h
HOP-62 [4] = test: Growth inhibition of Homo sapiens (human) HOP62 cells at 10 uM after 48 hr by SRB assay; details: HOP-62, 48 h, read-out: GI
IGROV-1 [5] = test: Anticancer activity against Homo sapiens (human) IGROV1 cells after 48 hr by SRB assay; details: IGROV-1, 48 h
786-0 [6] = test: Growth inhibition of Homo sapiens (human) 786-0 cells at 10 uM after 48 hr by SRB assay; details: 786-0, 48 h, read-out: GI
HCT-15 = test: Anticancer activity against Homo sapiens (human) HCT15 cells after 48 hr by SRB assay; details: HCT-15, 48 h
SK-MEL-28 [7] = test: Growth inhibition of Homo sapiens (human) SK-MEL-28 cells at 10 uM after 48 hr by SRB assay; details: SK-MEL-28, 48 h, read-out: GI
HOP-62 [8] = test: Anticancer activity against Homo sapiens (human) HOP62 cells after 48 hr by SRB assay; details: HOP-62, 48 h
HL-60(TB) = test: Growth inhibition of Homo sapiens (human) HL-60(TB) cells at 10 uM after 48 hr by SRB assay; details: HL-60, 48 h, read-out: GI
PC-3 = test: Anticancer activity against Homo sapiens (human) PC3 cells after 48 hr by SRB assay; details: PC-3, 48 h
Pseudomonas aeruginosa = test: Antimicrobial activity against Pseudomonas aeruginosa ATCC9027 assessed as growth inhibition after 48 hr by two-fold serial dilution method; details: ATCC9027, 48 h
SR = test: Growth inhibition of Homo sapiens (human) SR cells at 10 uM after 48 hr by SRB assay; details: read-out: GI
UACC-257 = test: Growth inhibition of Homo sapiens (human) UACC257 cells at 10 uM after 48 hr by SRB assay; details: UACC-257, 48 h, read-out: GI
U-251 = test: Anticancer activity against Homo sapiens (human) U251 cells after 48 hr by SRB assay; details: U-251, 48 h
SK-MEL-2 [9] = test: Anticancer activity against Homo sapiens (human) SK-MEL-2 cells after 48 hr by SRB assay; details: SK-MEL-2, 48 h
NCI-H226 = test: Anticancer activity against Homo sapiens (human) NCI-H226 cells after 48 hr by SRB assay; details: NCI-H226, 48 h
SF-539 = test: Growth inhibition of Homo sapiens (human) SF539 cells at 10 uM after 48 hr by SRB assay; details: SF-539, 48 h, read-out: GI
HOP-92 = test: Anticancer activity against Homo sapiens (human) HOP92 cells after 48 hr by SRB assay; details: HOP-92, 48 h
SK-MEL-2 [10] = test: Growth inhibition of Homo sapiens (human) SK-MEL-2 cells at 10 uM after 48 hr by SRB assay; details: SK-MEL-2, 48 h, read-out: GI
K562 [11] = test: Growth inhibition of Homo sapiens (human) K562 cells at 10 uM after 48 hr by SRB assay; details: K562, 48 h, read-out: GI
NCI-H522 = test: Growth inhibition of Homo sapiens (human) NCI-H522 cells at 10 uM after 48 hr by SRB assay; details: NCI-H522, 48 h, read-out: GI
786-0 [12] = test: Anticancer activity against Homo sapiens (human) 786-0 cells after 48 hr by SRB assay; details: 786-0, 48 h
[13] = read-out: LC50 (the source's name)

Cc1c(C(N)=O)sc2nc(C)n(/N=c3\scc(-c4ccccc4)n3Cc3ccccc3)c(=O)c12
GI50 (MOLT-4): 24.6 µM
TGI (MOLT-4): > 100 µM
CC50 (MOLT-4; [13]): > 100 µM
GI50 (SF-268): 4 µM
TGI (SF-268): > 100 µM
CC50 (SF-268; [13]): > 100 µM
GI50 (K562 [1]): 8.89 µM
TGI (K562 [1]): > 100 µM
CC50 (K562 [1]; [13]): > 100 µM
zone of inhibition at 1000 µg/mL (Escherichia coli): 15 mm
GI50 (TK-10): 3.78 µM
TGI (TK-10): > 100 µM
CC50 (TK-10; [13]): > 100 µM
inhibition of growth at 10 µM (KM12): 86.4%
GI50 (OVCAR-3): 2.28 µM
TGI (OVCAR-3): 8.58 µM
CC50 (OVCAR-3; [13]): > 100 µM
GI50 (NCI-H322M): 3.71 µM
TGI (NCI-H322M): > 100 µM
CC50 (NCI-H322M; [13]): > 100 µM
GI50 (HCC 2998): 3.05 µM
TGI (HCC 2998): > 100 µM
CC50 (HCC 2998; [13]): > 100 µM
inhibition of growth at 10 µM (MDA-MB-435): 87.8%
inhibition of growth at 10 µM (IGROV-1 [2]): 89.1%
GI50 (SK-MEL-28 [3]): 3.56 µM
TGI (SK-MEL-28 [3]): > 100 µM
CC50 (SK-MEL-28 [3]; [13]): > 100 µM
GI50 (HT-29): 3.04 µM
TGI (HT-29): > 100 µM
CC50 (HT-29; [13]): > 100 µM
inhibition of growth at 10 µM (HOP-62 [4]): 75.8%
GI50 (IGROV-1 [5]): 1.43 µM
TGI (IGROV-1 [5]): 6.31 µM
CC50 (IGROV-1 [5]; [13]): > 100 µM
inhibition of growth at 10 µM (786-0 [6]): 49.3%
GI50 (HCT-15): 2.64 µM
TGI (HCT-15): > 100 µM
CC50 (HCT-15; [13]): > 100 µM
inhibition of growth at 10 µM (SK-MEL-28 [7]): 51.8%
GI50 (HOP-62 [8]): 2.82 µM
TGI (HOP-62 [8]): 9.47 µM
CC50 (HOP-62 [8]; [13]): > 100 µM
inhibition of growth at 10 µM (HL-60(TB)): 136%
GI50 (PC-3): 2.15 µM
TGI (PC-3): 8.31 µM
CC50 (PC-3; [13]): > 100 µM
MIC (Pseudomonas aeruginosa): 125 µg/mL (≈ 256 µM)
inhibition of growth at 10 µM (SR): 87.2%
inhibition of growth at 10 µM (UACC-257): 95.2%
GI50 (U-251): 3.31 µM
TGI (U-251): > 100 µM
CC50 (U-251; [13]): > 100 µM
GI50 (SK-MEL-2 [9]): 3.89 µM
TGI (SK-MEL-2 [9]): 86.6 µM
CC50 (SK-MEL-2 [9]; [13]): > 100 µM
GI50 (NCI-H226): 3.72 µM
TGI (NCI-H226): 67.9 µM
CC50 (NCI-H226; [13]): > 100 µM
inhibition of growth at 10 µM (SF-539): 77.8%
GI50 (HOP-92): 1.34 µM
TGI (HOP-92): 5.33 µM
CC50 (HOP-92; [13]): > 100 µM
inhibition of growth at 10 µM (SK-MEL-2 [10]): 90%
inhibition of growth at 10 µM (K562 [11]): 91.6%
inhibition of growth at 10 µM (NCI-H522): 75.1%
GI50 (786-0 [12]): 3.82 µM
TGI (786-0 [12]): > 100 µM
CC50 (786-0 [12]; [13]): > 100 µM
